26 compounds from US9963451B2, “Fused ring pyrimidine compound and pest control agent containing the same” (Mitsui Chemicals Agro, Inc., priority 2013, dated 2018) can be followed below.

One assay deals with Pyricularia oryzae. The assay is described as follows: whole plant or invertebrate. The format is in vivo.
For another assay, the system named is Callosobruchus chinensis. In words: Test Example 5: insecticidal test against Callosobruchus chinensis (petri dish dry film). Type of assay: in vivo. As to conditions: 24 h, read-out: insect death ratio. On the procedure: Insecticidal Test Against Callosobruchus chinensis
1 ml of acetone solution in which a test compound had been diluted at a predetermined concentration was added dropwise to a petri dish having a diameter of 9 cm, and air dried, and then ten adults of Callosobruchus chinensis were released and the petri dish was covered. They were left to stand in an incubator at 25° C., and the numbers of living insects and dead insects were examined after 1 day. There was no series.

[1] abbreviates: Pyricularia oryzae, 168 h, read-out: Rice blast control value.

In the case of `C[C@@H](NC(=O)C(C#N)C(C)(C)C)c1ccc(Cl)cc1Cl` (some centres unmarked) [Diclocymet, diclocymet], the pest or weed control at 1.5 ppm in the assay with Pyricularia oryzae (setting [1]) was determined as 95%.

Regarding `CC1(C)N=C(c2cnc3ccccc3c2)c2ccccc2C1(F)F` [EE-1], the pest or weed control at 50 ppm with Pyricularia oryzae (setting [1]) was 97%.

Consider `CC1(C)N=C(c2cnc3ccccc3c2)c2cccc(F)c2C1(C)C` [EE-2], for which, in the assay on Pyricularia oryzae (setting [1]), the pest or weed control at 50 ppm worked out at 95%.

For `CC1(C)N=C(c2cnc3ccccc3c2)c2cccc(F)c2C1(F)F` [EE-3], the pest or weed control at 50 ppm in the assay with Pyricularia oryzae (setting [1]) amounted to 97%.

Turning to `CC(C)OC(=O)C(C(=O)OC(C)C)=C1SCCS1` [Isoprothiolane, isoprothiolane], the pest or weed control at 6 ppm in the assay on Pyricularia oryzae (setting [1]) is 97%.

`N#Cc1ccccc1NC(=O)c1snc(Cl)c1Cl` [Isotianil, isotianil]: in the assay with Pyricularia oryzae (1 ppm, spots counted 7 days later), the “Rice blast control value” is 97.

As for `CNC(=O)/C(=N/OC)c1ccccc1CO/N=C(C)/C(=N/OC)C(/C)=N/OC` [Orysastrobin, orysastrobin], the “Rice blast control value” in the assay with Pyricularia oryzae (3.5 ppm, spots counted 7 days later) came out at 95.

Regarding `C=CCOC1=NS(=O)(=O)c2ccccc21` [Probenazole, probenazole], the pest or weed control at 12 ppm in the assay on Pyricularia oryzae (setting [1]) was 96%.

For `CC(=O)Oc1c(C)c(C)nc2c(F)cc(C(C)(C)C)cc12` [Tebufloquin, tebufloquin], the “Rice blast control value” in the assay with Pyricularia oryzae (100 ppm, spots counted 7 days later) is recorded as 98.

`Cc1ccc(C(=O)NC[C@@H](NC(=O)OCC(F)(F)F)C(C)C)cc1` [Tolprocarb, tolprocarb]: the “Rice blast control value” in the assay with Pyricularia oryzae (in vivo) was 97.

In the case of `Cc1cc(=O)n2nc(S(C)(=O)=O)nc2n1Cc1ccc(Cl)nc1` [compound 10, 4-((6-chloropyridin-3-yl)methyl)-5-methyl-2-(methylsulfonyl)-[1,2,4]triazolo[1,5-a]pyrimidin-7(4H)-one], the pest or weed control at 1000 ppm in the assay on Callosobruchus chinensis is at least 70%.

Turning to `Cc1cc(=O)n2nc([S+](C)[O-])nc2n1Cc1ccc(Cl)nc1` (centres unmarked) [compound 26], the pest or weed control at 1000 ppm with Callosobruchus chinensis was at least 70%.

With `COc1nc2n(Cc3ccc(Cl)nc3)c(C)cc(=O)n2n1` [compound 45, 4-((6-chloropyridin-3-yl)methyl)-2-methoxy-5-methyl-[1,2,4]triazolo[1,5-a]pyrimidin-7(4H)-one], the pest or weed control at 1000 ppm with Callosobruchus chinensis was at least 70%.

Regarding `Cc1cc(=O)n2nc(OCC(F)(F)F)nc2n1Cc1ccc(Cl)nc1` [compound 46], in the assay with Callosobruchus chinensis, the pest or weed control at 1000 ppm was at least 70%.

Turning to `Cc1cc(=O)n2nc(C(C)(F)F)nc2n1Cc1ccc(Cl)nc1` [compound 59], the pest or weed control at 1000 ppm with Callosobruchus chinensis was at least 70%.

On to `Cc1cc(=O)n2nc(S(C)(=O)=NC#N)nc2n1Cc1ccc(Cl)nc1` (centres unmarked) [compound 76], for which, in the assay with Callosobruchus chinensis, the pest or weed control at 1000 ppm is at least 70%.

For the compound `Cc1cc(=O)n2nc(-n3cccn3)nc2n1Cc1ccc(Cl)nc1` [compound 80], in the assay on Callosobruchus chinensis, the pest or weed control at 1000 ppm is at least 70%.

As for `CSc1nc2n(Cc3ccc(Cl)nc3)c(C)c/c(=N\O)n2n1` [compound 121, 4-((6-chloropyridin-3-yl)methyl)-5-methyl-2-(methylthio)-[1,2,4]triazolo[1,5-a]pyrimidin-7(4H)-oneoxime], the pest or weed control at 1000 ppm with Callosobruchus chinensis was at least 70%.

For `Cc1cc(=O)n2nc(S(=O)(=O)CC(F)(F)F)nc2n1Cc1ccc(Cl)nc1` [compound 190], the pest or weed control at 1000 ppm in the assay with Callosobruchus chinensis is at least 70%.

With `CC[S+]([O-])c1cc2n(Cc3ccc(Cl)nc3)c(C)cc(=O)n2n1` (centres unmarked) [compound 244], the pest or weed control at 1000 ppm in the assay with Callosobruchus chinensis is at least 70%.

Regarding `Cc1cc(=O)n2nc(C(F)(F)F)cc2n1Cc1cnc(Cl)cc1Cl` [compound 248], in the assay on Callosobruchus chinensis, the pest or weed control at 1000 ppm was at least 70%.

As for `CCSc1cc2n(Cc3cnc(Cl)c(F)c3)c(C)cc(=O)n2n1` [compound 252], the pest or weed control at 1000 ppm in the assay on Callosobruchus chinensis is at least 70%.

As to `Cc1cc(=O)n2nc(C(F)(F)F)cc2n1Cc1cnc(Cl)c(F)c1` [compound 253], the pest or weed control at 1000 ppm in the assay on Callosobruchus chinensis is at least 70%.

For the compound `CSc1cc2n(Cc3cnc(Cl)nc3)c(C)cc(=O)n2n1` [compound 299], the pest or weed control at 1000 ppm in the assay on Callosobruchus chinensis was at least 70%.

In the case of `CSc1nc2n(Cc3cnc(Cl)c(F)c3)c(C)cc(=O)n2n1` [compound 306], in the assay on Callosobruchus chinensis, the pest or weed control at 1000 ppm was at least 70%.

`CSc1cc2n(Cc3cnc(Cl)c(F)c3)c(C)cc(=O)n2n1` [compound 307]: the pest or weed control at 1000 ppm in the assay with Callosobruchus chinensis is at least 70%.
